{"source": "paper PMC12239973", "about": "(Science Advances, 2025)", "key": {"[1]": {"system": "C4d", "experiment": "C4d deposition on PLD in plasma of donors with high anti-PEG titers", "assay_type": "biochemical, human", "details": "two donors with high anti-PEG titers; EGTA/Mg2+ 10 mM; sutimlimab 200 μg/ml"}, "[2]": {"system": "C3d", "experiment": "C3d deposition on PLD in plasma of donors with high anti-PEG titers", "assay_type": "biochemical, human", "details": "two donors with high anti-PEG titers; EDTA 10 mM; EGTA/Mg2+ 10 mM; sutimlimab 200 μg/ml; iptacopan 10 μM"}, "[3]": {"system": "C3", "assay_type": "biochemical, human", "details": "for inhibition of C3 opsonization of PLD, in words: two donors with top 10th percentile anti-PEG IgG/IgM, EGTA/Mg2+ 10 mM"}, "[4]": {"system": "human C3 deposition", "experiment": "C3 deposition on nanoparticles in human serum, C3 dot-blot immunoassay", "assay_type": "biochemical", "details": "for IC50: read-out: C3, IC50, healthy donor serum"}, "[5]": {"system": "human C5a release", "experiment": "C5a release in the fluid phase of human serum with nanoparticles, ELISA", "assay_type": "biochemical", "details": "for inhibition of C5a release: 100 μM; for IC50: read-out: C5a, IC50"}, "[6]": {"system": "C3", "experiment": "C3 opsonization of SPIO NWs in dog sera in vitro", "assay_type": "biochemical", "details": "10 μM, five breeds"}, "[7]": {"system": "C3", "experiment": "C3 opsonization of SPIO NWs in rat serum in vitro", "assay_type": "biochemical, Sprague-Dawley rats", "details": "100 μM"}, "[8]": {"system": "C3", "experiment": "C3 opsonization of SPIO NWs in mouse serum in vitro", "assay_type": "biochemical, BALB/c mice"}, "[9]": {"system": "rat C3", "experiment": "In vivo C3 opsonization of SPIO NWs in rats", "parameters": "species or system Sprague-Dawley rats", "details": "high dose iptacopan 0.99 mg/kg, 60 min postinjection"}, "[10]": {"system": "Sprague-Dawley rats", "experiment": "Rearing behavior of rats after bolus injection of SPIO NWs", "assay_type": "in vivo"}, "[11]": {"system": "mouse C3", "experiment": "In vivo C3 opsonization of SPIO NWs in mice", "parameters": "species or system BALB/c mice", "details": "IV iptacopan, 5 min after the injection"}, "[12]": {"system": "dog C3", "experiment": "In vivo C3 opsonization of SPIO NWs in dogs", "details": "Beagle dogs; iptacopan 0.43 mg/kg IV; 30 min postinjection"}, "[13]": {"system": "Beagle dogs", "experiment": "Blood pressure in anesthetized dogs after bolus injection of SPIO NWs", "assay_type": "in vivo", "details": "iptacopan IV 0.4285 mg/kg"}, "[14]": {"system": "granulocytes, monocytes, lymphocytes", "experiment": "Blood leukocyte uptake of bolus-injected SPIO NWs in mice", "assay_type": "in vivo, BALB/c mice"}, "[15]": {"system": "blood leukocytes", "experiment": "Blood leukocyte uptake of bolus-injected SPIO NWs in rats", "assay_type": "in vivo, Sprague-Dawley rats"}, "[16]": {"system": "granulocytes and monocytes", "assay_type": "cell-based, human", "details": "CR2-CR1 10 nM, iptacopan 20 μM; for efficacy on uptake across donors, in words: liposomes and LNPs, five donors"}, "[17]": {"system": "granulocytes", "experiment": "Blood leukocyte uptake of bolus-injected SPIO NWs in dogs", "assay_type": "in vivo", "details": "Beagle dogs; iptacopan 0.43 mg/kg IV coinjected with SPIO NWs 6.6 mg/kg; 30 and 60 min"}, "[18]": {"system": "C3 convertases", "details": "mice and dogs; cited from earlier work"}, "[19]": {"details": "EDTA 10 mM, sutimlimab 200 μg/ml, iptacopan 10 μM"}}, "note": "“Also recorded” adds a separate entry of the source. Read-outs that look alike come from different tables or passages of the source.", "data": [{"molecule": "EGTA/Mg^2+", "values": [{"measurement": "inhibition of C4d deposition on PLD, in words", "setting": "[1]", "result": "inhibited"}, {"measurement": "inhibition of C3d deposition on PLD, in words", "setting": "[2]", "result": "full inhibition"}, {"measurement": "inhibition of C3 opsonization of PLD, in words", "setting": "[3]; [19]", "result": "strong inhibition"}]}, {"molecule": "O=C(O)CN(CCN(CC(=O)O)CC(=O)O)CC(=O)O", "note": "[EDTA]", "values": [{"measurement": "inhibition of C3d deposition on PLD, in words", "setting": "[2]", "result": "full inhibition"}, {"measurement": "C3 on PLD blocked, on average", "setting": "[3]; lepirudin plasma, 10 donors, CR2-CR1 10 nM, EDTA 10 mM", "result": "~67", "unit": "%"}, {"measurement": "inhibition of C3 opsonization of PLD, in words", "setting": "[3]; [19]", "result": "only partially inhibited"}]}, {"molecule": "CC(=O)c1nn(CC(=O)N2C[C@H](F)C[C@H]2C(=O)Nc2cccc(Br)n2)c2ccc(-c3cnc(C)nc3)cc12", "note": "[Danicopan, danicopan]", "values": [{"measurement": "inhibition of C3 deposition", "setting": "[4]; PLD, inhibitor at 100 μM, human serum", "result": "less than 50%"}, {"measurement": "IC50", "setting": "[4]; CLIO NWs", "result": 10800, "unit": "nM"}, {"measurement": "IC50", "setting": "[4]; Onivyde", "result": 28100, "unit": "nM"}, {"measurement": "IC50", "setting": "[4]; SPIO NWs", "result": 417, "unit": "nM"}, {"measurement": "inhibition of C5a release", "setting": "[5]; mRNA LNPs, donor F46", "result": "less than 60%"}, {"measurement": "inhibition of C5a release", "setting": "[5]; mRNA LNPs, donors F38 and M61", "result": "completely inhibited"}, {"measurement": "C5a IC50, in words", "setting": "[5]; mRNA LNPs, sera from three healthy donors", "result": "low micromolar"}, {"measurement": "IC50", "setting": "[5]; CLIO NWs, human serum", "result": 6.93, "unit": "nM"}, {"measurement": "IC50", "setting": "[5]; Onivyde, human serum", "result": 2580, "unit": "nM"}, {"measurement": "IC50", "setting": "[5]; SPIO NWs, human serum", "result": 6.97, "unit": "nM"}, {"measurement": "IC50", "setting": "[5]; mRNA LNPs, donor F38 (table line matched to Fig. 2C)", "result": 1290, "unit": "nM"}, {"measurement": "IC50", "setting": "[5]; mRNA LNPs, donor F46 (table line matched to Fig. 2C)", "result": 7980, "unit": "nM"}, {"measurement": "IC50", "setting": "[5]; mRNA LNPs, donor M61 (table line matched to Fig. 2C)", "result": 71.2, "unit": "nM"}, {"measurement": "inhibition of C3 opsonization in dog sera", "setting": "[6]", "result": "considerably less effective"}, {"measurement": "inhibition of C3", "setting": "[7]", "result": "less than 50%"}, {"measurement": "inhibition in mouse serum, in words", "setting": "[8]", "result": "poor inhibition"}]}, {"molecule": "CCO[C@H]1CCN(Cc2c(OC)cc(C)c3[nH]ccc23)[C@H](c2ccc(C(=O)O)cc2)C1", "note": "[Iptacopan, iptacopan]", "values": [{"measurement": "rat C3 opsonization of NWs blocked", "setting": "[9]", "result": "more than 90%"}, {"measurement": "rearings after coinjection with NWs", "setting": "[10]; low or high dose of iptacopan", "result": "significant increase in rearings; also recorded: significantly normalized rearing behavior"}, {"measurement": "C3 opsonization of NWs retrieved from plasma", "setting": "[11]", "result": "significantly decreased"}, {"measurement": "dog C3 opsonization in the blood", "setting": "[12]", "result": "significantly decreased"}, {"measurement": "inhibition of C3d deposition on PLD, in words", "setting": "[2]", "result": "only partial activity"}, {"measurement": "inhibition of C3 opsonization in dog sera", "setting": "[6]", "result": "significant inhibition"}, {"measurement": "systolic and diastolic pressure after coinjection with SPIO NWs", "setting": "[13]", "result": "prevents the drop in blood pressure; also recorded: restored"}, {"measurement": "iptacopan administered intraperitoneally compared with IV", "setting": "[14]; IP before SPIO NWs", "result": "equally effective"}, {"measurement": "inhibition of uptake of SPIO NWs by monocytes and lymphocytes", "setting": "[14]; iptacopan with NWs 10 mg Fe/kg", "result": "partial inhibition"}, {"measurement": "inhibition of C3 opsonization of PLD, in words", "setting": "[3]; [19]", "result": "marginally effective"}, {"measurement": "inhibition of C3 opsonization of PLD, in words", "setting": "[3]; EDTA 10 mM, sutimlimab 200 μg/ml, iptacopan 10 μM, listed as iptacopan", "result": "minimal inhibition"}, {"measurement": "inhibition of uptake by granulocytes", "setting": "[15]; high-dose iptacopan 0.99 mg/kg, 60 min", "result": "significant inhibition"}, {"measurement": "uptake of SPIO NWs by blood leukocytes", "setting": "[15]; iptacopan IV 0.21 mg/kg (low dose) and 0.99 mg/kg (high dose) with SPIO NWs 6.6 mg/kg, 60 min postinjection", "result": "inhibited uptake"}, {"measurement": "efficacy on uptake across donors, in words", "setting": "[16]", "result": "effective in some donors"}, {"measurement": "efficacy on uptake across donors, in words", "setting": "[16]; listed as iptacopan", "result": "effective in three of five donors"}, {"measurement": "reduction of SPIO NWs uptake (number of magnetic cells)", "setting": "[16]; the one donor with measurable uptake", "result": "~ 60%"}, {"measurement": "number of magnetic granulocytes", "setting": "[17]", "result": "significantly reduced"}]}, {"molecule": "PMX53", "values": [{"measurement": "rearing behavior after coinjection with NWs", "setting": "[10]; PMX53 1 mg/kg IV, or 3 mg/kg IP + 1 mg/kg IV", "result": "did not restore; also recorded: not significantly increased"}]}, {"molecule": "CR1: human complement receptor 1 (soluble CR1 therapeutics)", "values": [{"measurement": "efficacy in animal species", "setting": "[18]", "result": "not effective"}]}, {"molecule": "Sutimlimab: monoclonal antibody that binds C1s; classical pathway inhibitor (antibody, chains of the INN, looked up, V domains shown) VH: EVQLVESGGGLVKPGGSLRLSCAASGFTFSNYAMSWVRQAPGKGLEWVATISSGGSHTYYLDSVKGRFTISRDNSKNTLYLQMNSLRAEDTALYYCARLFTGYAMDYWGQGTLVTVSS VL: QIVLTQSPATLSLSPGERATMSCTASSSVSSSYLHWYQQKPGKAPKLWIYSTSNLASGVPSRFSGSGSGTDYTLTISSLQPEDFATYYCHQYYRLPPITFGQGTKLEIK", "values": [{"measurement": "inhibition of C4d deposition on PLD, in words", "setting": "[1]", "result": "does not inhibit"}, {"measurement": "inhibition of C3d deposition on PLD, in words", "setting": "[2]", "result": "only partial activity"}, {"measurement": "inhibition of C3 deposition on PLD, in words", "setting": "[3]; lepirudin plasma, 10 donors, sutimlimab 200 μg/ml, iptacopan 10 μM", "result": "minimally effective"}, {"measurement": "inhibition of C3 opsonization of PLD, in words", "setting": "[3]; [19]", "result": "marginal effectiveness; also recorded: minimal inhibition"}]}]}
